The source of these data is the supplement of paper PMC10307832.

The structures appear in SMILES notation.

The first assay has as its system HCC-366. The experiment in a line: relative viability (nuclei count vs DMSO), 5 days (fraction); higher = more cells survive. The conditions noted are these: first compound 0.4 µM. An outline of the steps: (§1)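 Each reported value is a median over duplicate plates. It expresses relative viability: treated-well nuclei count divided by vehicle-well nuclei count. Lung cancer cell lines in 1536-well plates were dosed by pin tool a day after seeding, alone with one drug or with a fixed anchor-drug dose plus five library-drug doses (not always all listed) in √10 steps, and nuclei were counted after 5 days.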
In the case of `Clc1ccc(Nc2nnc(Cc3ccncc3)c3ccccc23)cc1` [Vatalanib] + COc1cccc2cc(-c3nc([C@H]4CC[C@H](C(=O)O)CC4)n4ncnc(N)c34)[nH]c12 [OSI-027] (partner 0.5 µM), the relative viability was determined as 1.13.
Still for that read-out and setting: for `Clc1ccc(Nc2nnc(Cc3ccncc3)c3ccccc23)cc1` [Vatalanib] + N=C(N)NC(=N)NCCc1ccccc1 [Phenformin] (partner 250 µM) the value was 0.6; for `Clc1ccc(Nc2nnc(Cc3ccncc3)c3ccccc23)cc1` [Vatalanib] + Nc1nc2[nH]cc(CCc3ccc(C(=O)N[C@@H](CCC(=O)O)C(=O)O)cc3)c2c(=O)[nH]1 [Pemetrexed] (partner 0.2 µM), 0.185.

The same assay, now with this note: first compound 1.265 µM.
Compound `COc1cc(N2CCC(C(N)=O)CC2)ccc1Nc1nc(N)c(Cl)c(Nc2ccccc2S(=O)(=O)C(C)C)n1` [HG-5-88-01] + N=C(N)NC(=N)NCCc1ccccc1 [Phenformin] (partner 250 µM) had a relative viability of 0.681.
The compound `Clc1ccc(Nc2nnc(Cc3ccncc3)c3ccccc23)cc1` [Vatalanib] + COc1cccc2cc(-c3nc([C@H]4CC[C@H](C(=O)O)CC4)n4ncnc(N)c34)[nH]c12 [OSI-027] (partner 0.5 µM) had a relative viability of 0.736.
Consider `Clc1ccc(Nc2nnc(Cc3ccncc3)c3ccccc23)cc1` [Vatalanib] + N=C(N)NC(=N)NCCc1ccccc1 [Phenformin] (partner 250 µM), for which the relative viability is 0.575.
The compound `Clc1ccc(Nc2nnc(Cc3ccncc3)c3ccccc23)cc1` [Vatalanib] + Nc1nc2[nH]cc(CCc3ccc(C(=O)N[C@@H](CCC(=O)O)C(=O)O)cc3)c2c(=O)[nH]1 [Pemetrexed] (partner 0.2 µM) displayed a relative viability of 0.162.

Still in this assay, the particulars now being: first compound 4 µM.
`COc1cc(N2CCC(C(N)=O)CC2)ccc1Nc1nc(N)c(Cl)c(Nc2ccccc2S(=O)(=O)C(C)C)n1` [HG-5-88-01] + N=C(N)NC(=N)NCCc1ccccc1 [Phenformin] (partner 250 µM): the relative viability came to 0.476.
The compound `Clc1ccc(Nc2nnc(Cc3ccncc3)c3ccccc23)cc1` [Vatalanib] + COc1cccc2cc(-c3nc([C@H]4CC[C@H](C(=O)O)CC4)n4ncnc(N)c34)[nH]c12 [OSI-027] (partner 0.5 µM) displayed a relative viability of 0.548.
Turning to `Clc1ccc(Nc2nnc(Cc3ccncc3)c3ccccc23)cc1` [Vatalanib] + N=C(N)NC(=N)NCCc1ccccc1 [Phenformin] (partner 250 µM), the relative viability is 0.547.
On to `Clc1ccc(Nc2nnc(Cc3ccncc3)c3ccccc23)cc1` [Vatalanib] + Nc1nc2[nH]cc(CCc3ccc(C(=O)N[C@@H](CCC(=O)O)C(=O)O)cc3)c2c(=O)[nH]1 [Pemetrexed] (partner 0.2 µM), for which the relative viability was 0.148.

The next assay has as its system NCI-H23. The description is as above. The conditions noted are these: first compound 0.04 µM. An outline of the steps:
as §1
`COc1cc(N2CCC(C(N)=O)CC2)ccc1Nc1nc(N)c(Cl)c(Nc2ccccc2S(=O)(=O)C(C)C)n1` [HG-5-88-01] + N=C(N)NC(=N)NCCc1ccccc1 [Phenformin] (partner 250 µM) displayed a relative viability of 0.767.
As for `Clc1ccc(Nc2nnc(Cc3ccncc3)c3ccccc23)cc1` [Vatalanib] + COc1cccc2cc(-c3nc([C@H]4CC[C@H](C(=O)O)CC4)n4ncnc(N)c34)[nH]c12 [OSI-027] (partner 0.5 µM), the relative viability is 0.634.
In turn, `Clc1ccc(Nc2nnc(Cc3ccncc3)c3ccccc23)cc1` [Vatalanib] + N=C(N)NC(=N)NCCc1ccccc1 [Phenformin] (partner 250 µM) gave a relative viability of 0.742.
On the same count and under the same terms, under `Clc1ccc(Nc2nnc(Cc3ccncc3)c3ccccc23)cc1` [Vatalanib] + Nc1nc2[nH]cc(CCc3ccc(C(=O)N[C@@H](CCC(=O)O)C(=O)O)cc3)c2c(=O)[nH]1 [Pemetrexed] (partner 0.2 µM) stands 0.579.

Still in this assay, the particulars now being: first compound 0.1265 µM.
`COc1cc(N2CCC(C(N)=O)CC2)ccc1Nc1nc(N)c(Cl)c(Nc2ccccc2S(=O)(=O)C(C)C)n1` [HG-5-88-01] + N=C(N)NC(=N)NCCc1ccccc1 [Phenformin] (partner 250 µM) had a relative viability of 0.833.
On the same count and under the same terms, for `Clc1ccc(Nc2nnc(Cc3ccncc3)c3ccccc23)cc1` [Vatalanib] + COc1cccc2cc(-c3nc([C@H]4CC[C@H](C(=O)O)CC4)n4ncnc(N)c34)[nH]c12 [OSI-027] (partner 0.5 µM) the value was 0.613; for `Clc1ccc(Nc2nnc(Cc3ccncc3)c3ccccc23)cc1` [Vatalanib] + N=C(N)NC(=N)NCCc1ccccc1 [Phenformin] (partner 250 µM), 0.719.
In turn, `Clc1ccc(Nc2nnc(Cc3ccncc3)c3ccccc23)cc1` [Vatalanib] + Nc1nc2[nH]cc(CCc3ccc(C(=O)N[C@@H](CCC(=O)O)C(=O)O)cc3)c2c(=O)[nH]1 [Pemetrexed] (partner 0.2 µM) gave a relative viability of 0.654.

Staying with this assay, now noted: first compound 0.4 µM.
Regarding `COc1cc(N2CCC(C(N)=O)CC2)ccc1Nc1nc(N)c(Cl)c(Nc2ccccc2S(=O)(=O)C(C)C)n1` [HG-5-88-01] + N=C(N)NC(=N)NCCc1ccccc1 [Phenformin] (partner 250 µM), the relative viability was determined as 0.786.
Compound `Clc1ccc(Nc2nnc(Cc3ccncc3)c3ccccc23)cc1` [Vatalanib] + COc1cccc2cc(-c3nc([C@H]4CC[C@H](C(=O)O)CC4)n4ncnc(N)c34)[nH]c12 [OSI-027] (partner 0.5 µM) registered a relative viability of 0.779.
For the compound `Clc1ccc(Nc2nnc(Cc3ccncc3)c3ccccc23)cc1` [Vatalanib] + N=C(N)NC(=N)NCCc1ccccc1 [Phenformin] (partner 250 µM), the relative viability was determined as 0.78.
The same measure, in the same setting: under `Clc1ccc(Nc2nnc(Cc3ccncc3)c3ccccc23)cc1` [Vatalanib] + Nc1nc2[nH]cc(CCc3ccc(C(=O)N[C@@H](CCC(=O)O)C(=O)O)cc3)c2c(=O)[nH]1 [Pemetrexed] (partner 0.2 µM) stands 0.728.

The assay is the same for the next values; noted with them: first compound 1.265 µM.
Turning to `COc1cc(N2CCC(C(N)=O)CC2)ccc1Nc1nc(N)c(Cl)c(Nc2ccccc2S(=O)(=O)C(C)C)n1` [HG-5-88-01] + N=C(N)NC(=N)NCCc1ccccc1 [Phenformin] (partner 250 µM), the relative viability is 0.868.
The compound `Clc1ccc(Nc2nnc(Cc3ccncc3)c3ccccc23)cc1` [Vatalanib] + COc1cccc2cc(-c3nc([C@H]4CC[C@H](C(=O)O)CC4)n4ncnc(N)c34)[nH]c12 [OSI-027] (partner 0.5 µM) showed a relative viability of 0.517.
On to `Clc1ccc(Nc2nnc(Cc3ccncc3)c3ccccc23)cc1` [Vatalanib] + N=C(N)NC(=N)NCCc1ccccc1 [Phenformin] (partner 250 µM), for which the relative viability worked out at 0.714.
Regarding `Clc1ccc(Nc2nnc(Cc3ccncc3)c3ccccc23)cc1` [Vatalanib] + Nc1nc2[nH]cc(CCc3ccc(C(=O)N[C@@H](CCC(=O)O)C(=O)O)cc3)c2c(=O)[nH]1 [Pemetrexed] (partner 0.2 µM), the relative viability amounted to 0.59.

The assay is the same for the next values; noted with them: first compound 4 µM.
Take `COc1cc(N2CCC(C(N)=O)CC2)ccc1Nc1nc(N)c(Cl)c(Nc2ccccc2S(=O)(=O)C(C)C)n1` [HG-5-88-01] + N=C(N)NC(=N)NCCc1ccccc1 [Phenformin] (partner 250 µM): the relative viability stood at 0.441.
Take `Clc1ccc(Nc2nnc(Cc3ccncc3)c3ccccc23)cc1` [Vatalanib] + COc1cccc2cc(-c3nc([C@H]4CC[C@H](C(=O)O)CC4)n4ncnc(N)c34)[nH]c12 [OSI-027] (partner 0.5 µM): the relative viability was found to be 0.387.
On the same count and under the same terms, under `Clc1ccc(Nc2nnc(Cc3ccncc3)c3ccccc23)cc1` [Vatalanib] + N=C(N)NC(=N)NCCc1ccccc1 [Phenformin] (partner 250 µM) stands 0.748.
